“And” between values parts separate entries of the source, which are not always exact repeats. Equal entries are not always repeated.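 All cell lines were grown in 96-well plates and treated with compound for 48 hours. GI50: concentration for 50% inhibition of growth. At the TGI there is no net growth.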
Tests used:
Assay in all cases: NCI-60 cell line screen, 48 h
A549 NSCLC = system: A549 NSCLC
HCT-15 colon = system: HCT-15 colon
HOP-92 NSCLC = system: HOP-92 NSCLC
HS 578T breast = system: HS 578T breast
KM12 colon = system: KM12 colon
M14 melanoma = system: M14 melanoma
NCI-H23 lung = system: NCI-H23 lung
NCI-H522 lung = system: NCI-H522 lung
OVCAR-3 ovarian = system: OVCAR-3 ovarian
UO-31 renal = system: UO-31 renal

| SMILES | TGI (A549 NSCLC) [µM] | TGI (HCT-15 colon) [µM] | TGI (HOP-92 NSCLC) | TGI (HS 578T breast) [µM] | TGI (KM12 colon) [µM] | TGI (M14 melanoma) [µM] | TGI (NCI-H23 lung) [µM] | TGI (NCI-H522 lung) [µM] | TGI (OVCAR-3 ovarian) | TGI (UO-31 renal) | GI50 (NCI-H23 lung) |
| --- | --- | --- | --- | --- | --- | --- | --- | --- | --- | --- | --- |
| COc1ccc(C(OCC2OC(n3ccc(Oc4c(F)c(F)c(F)c(F)c4F)nc3=O)CC2OP(OCCC#N)N(C(C)C)C(C)C)(c2ccccc2)c2ccc(OC)cc2)cc1 (centres undefined) | > 100 | > 100 | > 100 µM | > 100 | > 100 | > 100 | > 100 | > 100 | > 100 µM | > 100 µM |  |
| O=C(Nc1ccccc1C(=O)O)C(=Cc1ccccc1O)NC(=O)c1ccccc1 | > 100 | > 100 | > 100 µM | > 100 | > 100 | > 100 | > 100 | > 100 | > 100 µM | > 100 µM |  |
| Cc1cc(=O)oc2c(CN(CCCl)CCCl)c(O)ccc12 | > 100 | > 100 | > 100 µM | > 100 | > 100 | > 100 | > 100 | 36.4 | > 100 µM | > 100 µM |  |
| CCOC(=O)CCN1C(=O)c2c(NC(=O)C(=O)O)cccc2S1(=O)=O | > 100 | > 100 | > 100 µM | > 100 | > 100 | > 100 | > 100 | > 100 |  | > 100 µM |  |
| COc1cc2c3c4[n+](cc2c(OC)c1OC)CCC4CCC3 (centres undefined) | > 100 | > 100 | > 100 µM | > 100 | 99.5 | > 100 | > 100 | > 100 | > 100 µM | > 100 µM |  |
| CCN(CC)CCC1(C(=O)OC)SCCc2ccc(C)cc21 (centres undefined) | > 100 | > 100 | > 100 µM | > 100 | > 100 | > 100 | > 100 | > 100 | > 100 µM | > 100 µM |  |
| O=c1[nH]c(=O)c2c([nH]1)[nH]c1ccccc12 | > 100 | > 100 | > 100 µM | > 100 | > 100 | > 100 | > 100 | > 100 | > 100 µM | > 100 µM |  |
| CC(=O)OCC12C(OC(C)=O)C[C@@H](C)C3(CC(c4ccoc4)OC3=O)C1CCC(OC(C)=O)C21CO1 (some centres undefined) | > 100 | > 100 | > 100 µM | > 100 | > 100 | > 100 | > 100 | > 100 | > 100 µM | > 100 µM |  |
| Cc1nc2cccc(F)c2c(=O)n1-c1nnc(C2CC2)s1 | > 10 | > 10 | > 10 µM | > 10 | > 10 | > 10 | > 10 | > 10 | > 10 µM | > 10 µM |  |
| Oc1[nH]c2ccccc2c1N=NC(=S)NCc1ccccn1 | 13.7 | 33.2 | 18.1 µM | 47.7 | 19.6 | 4.89 | 14.9 | 14.7 | 15.3 µM | 6.56 µM |  |
| COC1OC(=O)C(OC)C(OC)C1OC (centres undefined) | > 100 | > 100 | > 100 µM | > 100 | > 100 | > 100 |  | > 100 | > 100 µM | > 100 µM |  |
| CN1CCN(C2CC(=O)c3c(Cl)sc(Cl)c32)CC1 (centres undefined) | > 52.9 | > 31.6 | > 27 µM | > 23.7 | 30.9 | 20.7 | 30.3 | 13.3 | 38.7 µM | 17 µM |  |
| CC(C)(C)C1=CC(O)(c2c3ccccc3c(C3(O)C=C(C(C)(C)C)C(=O)C(C(C)(C)C)=C3)c3ccccc23)C=C(C(C)(C)C)C1=O | > 100 | > 100 | 0.028 µM | > 100 | > 100 | > 100 | > 100 | > 100 | > 100 µM | > 100 µM |  |
| CC(=O)OC1COC(n2c(N)c(C#N)c(-c3ccccc3)c(C#N)c2=S)C(OC(C)=O)C1OC(C)=O (centres undefined) | > 100 | > 100 | > 100 µM and 92.6 µM | > 100 | > 100 | > 100 | > 100 | > 100 | > 100 µM and 97.2 µM | > 100 µM and 67.8 µM | 33.1 µM and 73.2 µM |
| CC(C)(CO)Nc1c(O)c2c(c(O)c1Cl)C(=O)C=CC2=O | 3.61 | 2.22 | 3.3 µM | 3.41 | 2.78 | 2.26 | 3.37 | 0.928 | 2.9 µM | 2.88 µM |  |
| CC1CC2OC(=N)C1(C#N)C2(C#N)C#N (centres undefined) | > 100 | 30.6 | 36 µM | > 100 | > 100 | > 100 | 63.7 | 37.8 |  | 93 µM |  |

| SMILES | TGI (A549 NSCLC) [µM] | TGI (HCT-15 colon) [µM] | TGI (HOP-92 NSCLC) | TGI (HS 578T breast) [µM] | TGI (KM12 colon) [µM] | TGI (M14 melanoma) [µM] | TGI (NCI-H23 lung) [µM] | TGI (NCI-H522 lung) [µM] | TGI (OVCAR-3 ovarian) | TGI (UO-31 renal) | GI50 (NCI-H23 lung) |
| --- | --- | --- | --- | --- | --- | --- | --- | --- | --- | --- | --- |
| Fc1sc2c(c1F)C1CCC2C1 (centres undefined) | > 100 | > 100 | > 100 µM | 69.6 | > 100 | > 100 | > 100 | > 100 | > 100 µM | > 100 µM |  |
| Oc1cccc(-c2cn3cc(Cl)ccc3n2)c1 | > 100 | > 100 | > 100 µM | > 100 | > 100 | > 100 | > 100 | 43.3 | > 100 µM | > 100 µM |  |
| O=C(CSCC(=O)N/N=C\c1cccc(Br)c1)N/N=C\c1cccc(Br)c1 | 31.5 | 86.5 | 47 µM | 35.7 | 32.8 | 49.9 | 30.1 | 51.9 | 26.6 µM | 33.1 µM |  |
| Cc1nc(C)c(C(=O)NNC(=O)c2ccccc2)cc1C(=O)NNC(=O)c1ccccc1 | > 100 | > 100 | > 100 µM | > 100 | > 10 | > 100 | > 100 | > 100 | > 100 µM | > 100 µM |  |
| [O-][n+]1cc(SCc2ccccc2)ncc1SCc1ccccc1 | > 10 | > 10 | > 10 µM | > 10 | > 10 | > 10 | > 10 | > 10 | > 10 µM | > 10 µM |  |
| CCOC(=O)CCC1(C(=O)O[C@@H]2C[C@H](C)CC[C@H]2C(C)C)CCCCC1=O (some centres undefined) | > 100 | > 100 | > 100 µM | > 100 | > 100 | > 100 | > 100 | > 100 | > 100 µM | > 100 µM |  |
| O=C(OCC(OC(=O)c1ccccc1)C1CC(C(O)C2CCCCC2)C(=O)O1)c1ccccc1 (centres undefined) |  | > 100 | > 100 µM | > 100 | > 100 | > 100 | > 100 | > 100 | > 100 µM | > 100 µM |  |
| CCOC(=O)N1c2c(c3ccccc3n2C(=O)OCC)C(=O)C(OC)N1C(=O)OCC (centres undefined) | > 100 | 79 | > 100 µM | 73.3 | 38.9 | > 100 | > 100 | 41.2 | > 100 µM | > 100 µM |  |
| CCCCCC(=O)OCC1(CO)C/C(=C/CC(C(C)C)C(C)C)C(=O)O1 (centres undefined) | > 75 | > 75 | > 75 µM | > 75 | 37.4 |  | > 75 | 27.7 | > 75 µM | 38.2 µM |  |
| N#Cc1nc(-c2ccccn2)c(-c2ccccn2)nc1C#N | 19.8 | > 42 | > 45.6 µM | 29.1 | 11.6 | 8.46 | 16.7 | 16.6 | > 42.9 µM | 5.64 µM |  |
| Cn1c(-c2cccs2)cc(-c2ccsc2)c1-c1ccsc1 | > 100 | > 100 | > 100 µM | > 100 | > 100 | > 100 | > 100 | > 100 | > 100 µM | > 100 µM |  |
| Cc1cccc2c1C(=O)/C(=C/c1ccccc1C(=O)O)C2 | > 100 | > 100 | > 100 µM | > 100 | > 100 | > 100 | > 100 | > 100 | > 100 µM | > 100 µM |  |
| NC(=O)c1ccc(S(=O)(=NS(=O)(=O)c2ccccc2)c2ccc(C(N)=O)cc2)cc1 | > 100 | > 100 | > 100 µM | > 100 | > 100 | > 100 | > 100 | > 100 | > 100 µM | > 100 µM |  |
| COc1nc2ncc([C@@H](O)[C@H](O)CO)nc2c(=O)[nH]1 | > 100 | > 100 | > 100 µM | > 100 | > 100 | > 100 |  | > 100 | > 100 µM | > 100 µM |  |
| COc1ccc2c(-c3csc(-c4c[nH]c5ccccc45)n3)c[nH]c2c1 | 53.7 | > 100 | 26.4 µM | > 78.7 | 14.8 | 53.1 | > 66.5 | 25.4 | 51.7 µM | 30.6 µM |  |
| O=C1CSC2=NC3=C(COC/C3=C\c3ccc(F)cc3)C(c3ccc(F)cc3)N12 (centres undefined) |  | > 100 | > 100 µM | > 100 | > 100 | > 100 | > 100 | > 100 | > 100 µM | > 100 µM |  |

Source: PubChem BioAssay (NCI)
